Assays:
[1] = tested on: BaF3-CSF1R-1600 cells (express ETV6-CSF1R fusion protein); assay: MTS cell viability assay, BaF3-CSF1R-1600; type: cell-based; conditions: 72 h, read-out: Cellular Proliferation Assay BaF3-CSF1R GI50
Summary of the method: (§1)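 Cells seeded 16 h beforehand (10000 M-NFS-60 or 8000 BaF3-CSF1R-1600 per well), then exposed 72 h to test compounds in RPMI1640 with 10% FBS at 37 °C. Viability read by MTS absorbance at 490 nm; GI50 is the concentration giving 50% viability reduction versus DMSO vehicle.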

Aurora B = Aurora B (Homo sapiens, UniProt Q96GD4); assay: HotSpot kinase profiling, Aurora B; type: biochemical; conditions: HotSpot assay, 10 μM ATP; IC50 of kinase divided by that of CSF1R
Description: In vitro profiling of the kinase panel was performed at Reaction Biology Corporation (www.reactionbiology.com, Malvern, PA) using the “HotSpot” assay platform. Briefly, specific kinase/substrate pairs along with required cofactors were prepared in a reaction buffer containing 20 mM Hepes pH 7.5, 10 mM MgCl2, 1 mM EGTA, 0.02% Brij35, 0.02 mg/ml BSA, 0.1 mM NA3VO4, 2 mM DTT, and 1% DMSO. […] 20 minutes later, a mixture of ATP (Sigma, St. Louis MO) and ^33P ATP (Perkin Elmer, Waltham MA) was added to the resulting reaction solution to give a final concentration of 10 μM. The reaction was carried out at room temperature for 120 min., followed by spotting the reaction solution onto P81 ion exchange filter paper (Whatman Inc., Piscataway, NJ). Unbound phosphate was removed by extensive washing filters in 0.75% phosphoric acid. […] Selectivity, expressed as an IC50 ratio, was determined by dividing the IC50 value of a kinase, e.g., Aurora A, by that of CSF1R.

M-NFS-60 cells = assay: MTS cell viability assay, M-NFS-60; type: cell-based; conditions: 72 h, read-out: Cellular Proliferation Assay M-NFS-60 (nM) GI50
Summary of the method: as §1

PDGFR B = PDGFR B (Homo sapiens, UniProt P09619); assay: HotSpot kinase profiling, PDGFR B; type: biochemical; conditions: HotSpot assay, 10 μM ATP; IC50 of kinase divided by that of CSF1R
Description: (§2) A study was conducted to determine kinase selectivity of compounds 27 and 67. More specifically, each compound was tested for inhibitory activity of CSF1R kinase, as compared to that of seven other kinases, i.e., Aurora A, Aurora B, tyrosine-protein kinase Kit (c-Kit), fms-like tyrosine kinase 3 (FLT3), platelet-derived growth factor receptor (PDGFR) A, PDGFR B, and discoidin domain receptor tyrosine kinase 1 (DDR1).
(§3) In vitro profiling of the kinase panel was performed at Reaction Biology Corporation (www.reactionbiology.com, Malvern, PA) using the “HotSpot” assay platform. Briefly, specific kinase/substrate pairs along with required cofactors were prepared in a reaction buffer containing 20 mM Hepes pH 7.5, 10 mM MgCl2, 1 mM EGTA, 0.02% Brij35, 0.02 mg/ml BSA, 0.1 mM NA3VO4, 2 mM DTT, and 1% DMSO. Compound 27 or 67 was added. 20 minutes later, a mixture of ATP (Sigma, St. Louis MO) and ^33P ATP (Perkin Elmer, Waltham MA) was added to the resulting reaction solution to give a final concentration of 10 μM. The reaction was carried out at room temperature for 120 min., followed by spotting the reaction solution onto P81 ion exchange filter paper (Whatman Inc., Piscataway, NJ). Unbound phosphate was removed by extensive washing filters in 0.75% phosphoric acid. […] Selectivity, expressed as an IC50 ratio, was determined by dividing the IC50 value of a kinase, e.g., Aurora A, by that of CSF1R.

[2] = target: tyrosine-protein kinase Kit (c-Kit) (Homo sapiens, UniProt P10721); assay: HotSpot kinase profiling, c-Kit; type: biochemical; conditions: HotSpot assay, 10 μM ATP; IC50 of kinase divided by that of CSF1R
Description: as §2, §3

Aurora A = target: T1, Aurora A (Homo sapiens, UniProt O14965); assay: HotSpot kinase profiling, Aurora A; type: biochemical; conditions: HotSpot assay, 10 μM ATP; IC50 of kinase divided by that of CSF1R
T1 sequence (O14965 1-403): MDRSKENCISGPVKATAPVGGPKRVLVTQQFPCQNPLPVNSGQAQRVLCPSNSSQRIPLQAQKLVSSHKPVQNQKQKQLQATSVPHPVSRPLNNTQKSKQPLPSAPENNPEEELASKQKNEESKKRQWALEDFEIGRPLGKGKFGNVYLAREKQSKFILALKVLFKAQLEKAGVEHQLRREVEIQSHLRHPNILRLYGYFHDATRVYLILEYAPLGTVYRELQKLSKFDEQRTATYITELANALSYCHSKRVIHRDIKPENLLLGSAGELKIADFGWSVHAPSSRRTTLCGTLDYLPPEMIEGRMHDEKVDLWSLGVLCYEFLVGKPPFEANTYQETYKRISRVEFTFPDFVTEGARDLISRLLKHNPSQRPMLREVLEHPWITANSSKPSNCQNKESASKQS
Description: as §2, §3

[3] = target: platelet-derived growth factor receptor (PDGFR) A (Homo sapiens, UniProt P16234); assay: HotSpot kinase profiling, PDGFR A; type: biochemical; conditions: HotSpot assay, 10 μM ATP; IC50 of kinase divided by that of CSF1R
Description: as §2, §3

PDGFR B, sequence (P09619 33-1106): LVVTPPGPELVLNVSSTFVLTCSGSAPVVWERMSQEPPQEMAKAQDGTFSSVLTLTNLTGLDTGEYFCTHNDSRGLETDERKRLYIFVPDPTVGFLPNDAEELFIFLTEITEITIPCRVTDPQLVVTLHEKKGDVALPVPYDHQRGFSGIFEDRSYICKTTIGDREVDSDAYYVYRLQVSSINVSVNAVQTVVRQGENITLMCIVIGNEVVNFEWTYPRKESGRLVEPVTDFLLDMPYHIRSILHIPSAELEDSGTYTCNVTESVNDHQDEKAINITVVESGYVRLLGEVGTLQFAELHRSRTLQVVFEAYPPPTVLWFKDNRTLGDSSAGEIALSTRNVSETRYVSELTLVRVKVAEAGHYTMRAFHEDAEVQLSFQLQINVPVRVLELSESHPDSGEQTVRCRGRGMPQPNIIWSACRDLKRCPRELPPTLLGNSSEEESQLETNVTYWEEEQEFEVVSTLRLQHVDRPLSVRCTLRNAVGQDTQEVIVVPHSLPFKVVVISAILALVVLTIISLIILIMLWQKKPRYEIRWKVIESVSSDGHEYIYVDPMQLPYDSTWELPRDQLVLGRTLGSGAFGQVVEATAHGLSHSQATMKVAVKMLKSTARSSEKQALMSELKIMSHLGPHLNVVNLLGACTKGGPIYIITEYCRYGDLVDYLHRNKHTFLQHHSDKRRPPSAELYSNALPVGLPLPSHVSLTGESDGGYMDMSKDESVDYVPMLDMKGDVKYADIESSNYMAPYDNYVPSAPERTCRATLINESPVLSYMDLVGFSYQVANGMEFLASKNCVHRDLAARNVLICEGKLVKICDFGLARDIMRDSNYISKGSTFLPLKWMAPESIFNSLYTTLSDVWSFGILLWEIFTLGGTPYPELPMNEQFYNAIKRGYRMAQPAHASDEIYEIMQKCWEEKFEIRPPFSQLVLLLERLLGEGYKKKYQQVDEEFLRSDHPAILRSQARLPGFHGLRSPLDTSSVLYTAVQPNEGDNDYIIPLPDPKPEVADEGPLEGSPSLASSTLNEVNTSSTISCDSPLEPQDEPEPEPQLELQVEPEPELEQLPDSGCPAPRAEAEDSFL
Aurora B, sequence (Q96GD4 whole entry): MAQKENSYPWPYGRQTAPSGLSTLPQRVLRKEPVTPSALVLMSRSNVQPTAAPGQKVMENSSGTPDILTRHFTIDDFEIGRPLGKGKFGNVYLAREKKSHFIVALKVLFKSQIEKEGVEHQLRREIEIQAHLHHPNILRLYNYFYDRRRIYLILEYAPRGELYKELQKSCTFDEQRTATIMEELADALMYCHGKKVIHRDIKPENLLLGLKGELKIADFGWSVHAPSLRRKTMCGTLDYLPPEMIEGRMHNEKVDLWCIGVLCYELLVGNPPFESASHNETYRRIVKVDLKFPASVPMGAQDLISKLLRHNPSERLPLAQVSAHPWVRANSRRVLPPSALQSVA
platelet-derived growth factor receptor (PDGFR) A, sequence (P16234 24-1089): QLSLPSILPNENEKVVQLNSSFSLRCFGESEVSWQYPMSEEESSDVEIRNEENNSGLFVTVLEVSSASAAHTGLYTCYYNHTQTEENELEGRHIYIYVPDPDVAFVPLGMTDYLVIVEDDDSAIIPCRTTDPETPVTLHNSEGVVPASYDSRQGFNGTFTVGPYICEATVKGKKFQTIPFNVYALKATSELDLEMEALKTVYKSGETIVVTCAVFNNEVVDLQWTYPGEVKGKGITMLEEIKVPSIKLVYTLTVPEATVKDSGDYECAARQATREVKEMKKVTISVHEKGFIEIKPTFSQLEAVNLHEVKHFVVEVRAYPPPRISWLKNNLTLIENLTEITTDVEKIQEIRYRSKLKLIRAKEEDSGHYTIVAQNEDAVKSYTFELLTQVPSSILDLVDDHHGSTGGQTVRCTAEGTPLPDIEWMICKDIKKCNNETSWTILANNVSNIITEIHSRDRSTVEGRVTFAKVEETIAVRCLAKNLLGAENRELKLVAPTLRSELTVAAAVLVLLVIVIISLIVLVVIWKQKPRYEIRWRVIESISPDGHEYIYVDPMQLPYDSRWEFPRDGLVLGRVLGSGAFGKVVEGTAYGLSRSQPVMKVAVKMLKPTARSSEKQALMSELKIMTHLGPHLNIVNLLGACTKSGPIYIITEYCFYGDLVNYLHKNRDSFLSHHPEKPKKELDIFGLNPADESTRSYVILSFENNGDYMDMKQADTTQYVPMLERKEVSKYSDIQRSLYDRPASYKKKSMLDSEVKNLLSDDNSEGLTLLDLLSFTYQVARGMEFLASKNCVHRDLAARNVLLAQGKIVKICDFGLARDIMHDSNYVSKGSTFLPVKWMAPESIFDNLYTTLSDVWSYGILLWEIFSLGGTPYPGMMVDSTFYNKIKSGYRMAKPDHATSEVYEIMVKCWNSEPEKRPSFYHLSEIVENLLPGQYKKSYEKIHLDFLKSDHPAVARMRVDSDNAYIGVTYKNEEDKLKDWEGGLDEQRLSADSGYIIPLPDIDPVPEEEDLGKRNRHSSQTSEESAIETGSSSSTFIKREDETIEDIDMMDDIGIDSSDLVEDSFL
tyrosine-protein kinase Kit (c-Kit), sequence (P10721 26-976): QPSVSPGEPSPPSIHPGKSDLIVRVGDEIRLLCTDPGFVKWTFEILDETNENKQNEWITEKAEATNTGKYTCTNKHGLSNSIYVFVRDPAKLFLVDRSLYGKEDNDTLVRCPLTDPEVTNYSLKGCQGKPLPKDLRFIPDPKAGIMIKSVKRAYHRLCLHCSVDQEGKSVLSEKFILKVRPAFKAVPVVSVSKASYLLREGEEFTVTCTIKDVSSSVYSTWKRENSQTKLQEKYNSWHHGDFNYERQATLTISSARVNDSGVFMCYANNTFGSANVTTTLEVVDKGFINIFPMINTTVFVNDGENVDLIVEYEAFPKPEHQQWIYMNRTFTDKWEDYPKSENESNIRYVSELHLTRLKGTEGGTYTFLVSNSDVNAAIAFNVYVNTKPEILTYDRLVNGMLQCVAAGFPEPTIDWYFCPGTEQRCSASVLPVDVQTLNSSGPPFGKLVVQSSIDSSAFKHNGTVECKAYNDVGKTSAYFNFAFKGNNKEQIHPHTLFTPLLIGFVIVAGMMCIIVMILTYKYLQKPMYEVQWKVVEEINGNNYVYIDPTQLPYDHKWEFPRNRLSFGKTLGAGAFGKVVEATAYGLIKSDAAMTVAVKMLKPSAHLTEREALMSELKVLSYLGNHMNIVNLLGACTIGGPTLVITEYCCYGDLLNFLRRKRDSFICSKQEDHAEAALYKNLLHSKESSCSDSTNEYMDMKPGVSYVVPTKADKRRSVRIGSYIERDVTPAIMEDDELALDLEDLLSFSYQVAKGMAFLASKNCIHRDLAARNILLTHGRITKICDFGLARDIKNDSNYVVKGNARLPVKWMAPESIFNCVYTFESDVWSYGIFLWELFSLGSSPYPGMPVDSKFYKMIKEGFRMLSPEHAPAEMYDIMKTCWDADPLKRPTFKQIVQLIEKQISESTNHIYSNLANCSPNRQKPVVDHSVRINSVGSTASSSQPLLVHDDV

Row | SMILES | GI50 [1] | IC50 ratio Aurora B / CSF1R (Aurora B) | GI50 (M-NFS-60 cells) | IC50 ratio PDGFR B / CSF1R (PDGFR B) | IC50 ratio c-Kit / CSF1R [2] | IC50 ratio Aurora A / CSF1R (Aurora A) | IC50 ratio PDGFR A / CSF1R [3]
1 | CN(C)c1ccc2c(Oc3ccc(NC(=O)NCc4ccc(C(F)(F)F)nc4)cc3)ncnc2c1 [Compound 27, 1-(4-((7-(dimethylamino)quinazolin-4-yl)oxy)phenyl)-3-((6-(trifluoromethyl)pyridin-3-yl)methyl)urea] | 20 to 100 nM | +++ (+++: 1000 > IC50 ratio > 100) | 20 to 100 nM | ++ (++: 100 > IC50 ratio > 10) | ++ (++: 100 > IC50 ratio > 10) | ++++ (++++: IC50 ratio > 1000) | ++ (++: 100 > IC50 ratio > 10)
2 | CN(C)c1ccc2c(Oc3ccc4c(ccn4C(=O)NCc4ccc(C(F)(F)F)nc4)c3)ncnc2c1 [Compound 67, 5-((7-(dimethylamino)quinazolin-4-yl)oxy)-N-((6-(trifluoromethyl)pyridin-3-yl)methyl)-1H-indole-1-carboxamide] | 20 to 100 nM | +++ (+++: 1000 > IC50 ratio > 100) | 100 to 1000 nM | +++ (+++: 1000 > IC50 ratio > 100) | +++ (+++: 1000 > IC50 ratio > 100) | +++ (+++: 1000 > IC50 ratio > 100) | ++ (++: 100 > IC50 ratio > 10)

Reference: patent US12668584B2, “Heterocyclic compounds as kinase inhibitors for therapeutic uses” (National Health Research Institutes, priority 2019, dated 2026)
